Assay results: patent US4705900A, “Insecticidal alkenes” (Imperial Chemical Industries PLC, priority 1985, dated 1987)

What was measured:
[1] = tested on: Tetranychus urticae; experiment: mortality of red spider mites (TU), contact test; type: in vivo, Tetranychus urticae (red spider mites - adult); settings: Tetranychus urticae, 72 h, French bean leaf, 3 days, read-out: grading of mortality, TU
Protocol: (§1) The activity of the Product was determined using a variety of insect pests. The Product was used in the form of liquid preparations containing 500 or 100 parts per million (ppm) by weight of the Product. The preparations were made by dissolving the Product in acetone and diluting the solutions with water containing 0.01% by weight of a wetting agent sold under the trade name "LISSAPOL" NX until the liquid preparations contained the required concentration of the Product. "Lissapol" is a Registered Trade Mark.
(§2) The test procedure adopted with regard to each pest was basically the same and comprised supporting a number of the pests on a medium which was usually a host plant or a foodstuff on which the pests feed, and treating either or both the pests and the medium with the preparations. The mortality of the pests was then assessed at periods usually varying from one to three days after the treatment.
(§3) The results of the tests are given in Table IV for each of the Products, at the rate in parts per million given in the second column as a grading of mortality designated as A, B or C wherein A indicates 80-100% mortality or knockdown, B indicates 50-79% mortality or knockdown and C indicates less than 50% mortality or knockdown.
(§4) In Table IV the pest organism used is designated by a letter code and the pests species, the support medium or food, and the type and duration of test is given in Table III.
(red spider mites - adult)

[2] = tested on: Myzus persicae; experiment: mortality of aphids (MP), contact test; type: in vivo, Myzus persicae (aphids); settings: Myzus persicae, 48 h, leaf, 2 days, read-out: grading of mortality, MP
Protocol: as §1, §2, §3, §4

[3] = tested on: Nilaparvata lugens; experiment: mortality of green leaf hopper (NL), contact test; type: in vivo, Nilaparvata lugens (brown planthopper); settings: Nilaparvata lugens, in Brassica oleracea, 144 h, cabbage leaf, 6 days, read-out: grading of mortality, NL
Protocol: as §1, §2, §3, §4

[4] = tested on: Musca domestica; experiment: knockdown of houseflies (MD/KD); type: in vivo, Musca domestica (houseflies - adults); settings: Musca domestica, cotton wool/sugar, 4 hours, read-out: grading of knockdown, MD/KD
Protocol: as §1, §2
In case of the species Musca domestica (housefly), additional tests to determine the knockdown effect of the compounds were performed.
as §3, §4

[5] = tested on: Musca domestica; experiment: mortality of houseflies (MD), contact test; type: in vivo, Musca domestica (houseflies - adults); settings: Musca domestica, 24 h, cotton wool/sugar, 1 day, read-out: grading of mortality, MD
Protocol: as §1, §2, §3, §4

[6] = tested on: Blattella germanica; experiment: mortality of cockroach nymphs (BG), residual test; type: in vivo, Blattella germanica (cockroach nymphs); settings: Blattella germanica, 72 h, plastic pot, 3 days, read-out: grading of mortality, BG
Protocol: as §1, §2, §3, §4

[7] = tested on: Heliothis viriscens; experiment: whole plant or invertebrate; type: in vivo, Heliothis viriscens (tobacco budworm); settings: in Gossypium hirsutum, 72 h, read-out: grading of mortality, HV
Protocol: as §1, §2, §3, §4

[8] = tested on: Chilo partellurs; experiment: mortality of stem borers (CP), residual test; type: in vivo, Chilo partellurs (Stem borers); settings: Chilo, 72 h, oil seed rape leaf, 3 days, read-out: grading of mortality, CP
Protocol: as §1, §2, §3, §4

[9] = tested on: Diabrotica balteata; experiment: mortality of rootworm larvae (DB), residual test; type: in vivo, Diabrotica balteata (rootworm larvae); settings: Diabrotica balteata, in Zea mays, 72 h, filter paper/maize seed, 3 days, read-out: grading of mortality, DB
Protocol: as §1, §2, §3, §4

## CC(C)(/C=C\c1ccccc1)COCc1ccc(F)c(Oc2ccccc2)c1 [Compound 21, 3,3-Dimethyl-1-phenyl-4-(4-fluoro-3-phenoxybenzyloxy)but-1-ene]
[1]; 100 ppm
  mortality at 100 ppm: < 50%
[2]; 100 ppm
  mortality at 100 ppm: < 50%
[3]; 100 ppm
  mortality at 100 ppm: < 50%
[4]; 100 ppm
  pest or weed control at 100 ppm: < 50%
[5]; 100 ppm
  mortality at 100 ppm: < 50%
[6]; 100 ppm
  mortality at 100 ppm: < 50%
[7]
  mortality at 100 ppm: < 50%
[8]; 100 ppm
  mortality at 100 ppm: 80 to 100%
[9]; 100 ppm
  mortality at 100 ppm: < 50%

## CCC(C)(/C=C\c1ccc(Cl)cc1)COCc1cccc(Oc2ccccc2)c1 (stereo not drawn) [Compound 26, 3-Ethyl-3-methyl-1-(4-chlorophenyl)-4-(3-phenoxybenzyloxy)but-1-ene]
[1]
  mortality at 500 ppm: < 50%
[2]
  mortality at 500 ppm: < 50%
[3]
  mortality at 500 ppm: < 50%
[4]
  pest or weed control at 500 ppm: < 50%
[5]
  mortality at 500 ppm: < 50%
[6]
  mortality at 500 ppm: < 50%
[7]
  mortality at 500 ppm: < 50%
[8]
  mortality at 500 ppm: < 50%
[9]
  mortality at 500 ppm: < 50%

## CCOc1ccc(/C=C/C(C)(C)COCc2ccc(F)c(Oc3ccccc3)c2)cc1 [Compound 10, 3,3-Dimethyl-1-(4-ethoxyphenyl)-4-(4-fluoro-3-phenoxybenzyloxy)but-1-ene]
[1]
  mortality at 500 ppm: < 50%
[2]
  mortality at 500 ppm: 50 to 79%
[3]
  mortality at 500 ppm: < 50%
[4]
  pest or weed control at 500 ppm: 50 to 79%
[5]
  mortality at 500 ppm: 50 to 79%
[6]
  mortality at 500 ppm: < 50%
[7]
  mortality at 500 ppm: 80 to 100%
[8]
  mortality at 500 ppm: 80 to 100%
[9]
  mortality at 500 ppm: < 50%

## Fc1ccc(/C=C\C2(COCc3cccc(Oc4ccccc4)c3)CC2)cc1 [Compound 20, 1-[2-(4-fluorophenyl)ethen-1-yl]-1-(3-phenoxybenzyloxymethyl)cyclopropane]
[1]
  mortality at 500 ppm: < 50%
[2]
  mortality at 500 ppm: 50 to 79%
[3]
  mortality at 500 ppm: < 50%
[4]
  pest or weed control at 500 ppm: < 50%
[5]
  mortality at 500 ppm: < 50%
[6]
  mortality at 500 ppm: < 50%
[7]
  mortality at 500 ppm: < 50%
[8]
  mortality at 500 ppm: 80 to 100%
[9]
  mortality at 500 ppm: < 50%

## COc1ccc(/C=C/C(C)(C)COCc2ccc(F)c(Oc3ccccc3)c2)cc1 [Compound 24, 3,3-dimethyl-1-(4-methoxyphenyl)-4-(4-fluoro-3-phenoxybenzyloxy)but-1-ene]
[1]
  mortality at 500 ppm: 50 to 79%
[2]
  mortality at 500 ppm: 50 to 79%
[3]
  mortality at 500 ppm: 80 to 100%
[4]
  pest or weed control at 500 ppm: 80 to 100%
[5]
  mortality at 500 ppm: 80 to 100%
[6]
  mortality at 500 ppm: < 50%
[7]
  mortality at 500 ppm: 50 to 79%
[8]
  mortality at 500 ppm: 80 to 100%
[9]
  mortality at 500 ppm: < 50%

## CC(C)(/C=C\c1ccc(F)cc1)COCc1ccc(F)c(Oc2ccccc2)c1 [Compound 5, 3,3-dimethyl-1-(4-fluorophenyl)-4-(4-fluoro-3-phenoxybenzyloxy)but-1-ene]
[1]
  mortality at 500 ppm: < 50%
[2]
  mortality at 500 ppm: < 50%
[3]
  mortality at 500 ppm: < 50%
[4]
  pest or weed control at 500 ppm: < 50%
[5]
  mortality at 500 ppm: < 50%
[6]
  mortality at 500 ppm: < 50%
[7]
  mortality at 500 ppm: < 50%
[8]
  mortality at 500 ppm: < 50%
[9]
  mortality at 500 ppm: < 50%

## CC(C)(C=Cc1ccc(F)c(F)c1)COCc1cccc(Oc2ccccc2)c1 [Compound 18, 3,3-Dimethyl-1-(3,4-difluorophenyl)-4-(3-phenoxybenzyloxy)but-1-ene]
[1]
  mortality at 500 ppm: 50 to 79%
[2]
  mortality at 500 ppm: < 50%
[3]
  mortality at 500 ppm: < 50%
[4]
  pest or weed control at 500 ppm: < 50%
[5]
  mortality at 500 ppm: < 50%
[6]
  mortality at 500 ppm: < 50%
[7]
  mortality at 500 ppm: 80 to 100%
[8]
  mortality at 500 ppm: 80 to 100%
[9]
  mortality at 500 ppm: < 50%

## Cc1ccc(C=CC(C)(C)COCc2ccc(F)c(Oc3ccccc3)c2)cc1 [Compound 8, 3,3-Dimethyl-1-(4-methylphenyl)-4-(4-fluoro-3-phenoxybenzyloxy)but-1-ene]
[1]
  mortality at 500 ppm: < 50%
[2]
  mortality at 500 ppm: 80 to 100%
[3]
  mortality at 500 ppm: 80 to 100%
[4]
  pest or weed control at 500 ppm: 80 to 100%
[5]
  mortality at 500 ppm: 80 to 100%
[6]
  mortality at 500 ppm: 50 to 79%
[7]
  mortality at 500 ppm: 80 to 100%
[8]
  mortality at 500 ppm: 80 to 100%
[9]
  mortality at 500 ppm: 80 to 100%

## Clc1ccc(/C=C\C2(COCc3cccc(Oc4ccccc4)c3)CC2)cc1 [Compound 23, 1-[2-(4-chlorophenyl)ethen-1-yl]-1-(3-phenoxybenzyloxymethyl)cyclopropane]
[1]
  mortality at 500 ppm: < 50%
[2]
  mortality at 500 ppm: < 50%
[3]
  mortality at 500 ppm: 80 to 100%
[4]
  pest or weed control at 500 ppm: < 50%
[5]
  mortality at 500 ppm: < 50%
[6]
  mortality at 500 ppm: < 50%
[7]
  mortality at 500 ppm: < 50%
[8]
  mortality at 500 ppm: 80 to 100%
[9]
  mortality at 500 ppm: < 50%

## CC(C)(/C=C\c1ccc(Cl)cc1)COCc1cccc(Oc2ccccc2)c1 [Compound 2, 3,3-Dimethyl-1-(4-chlorophenyl)-4-(3-phenoxybenzyloxy)but-1-ene]
[1]
  mortality at 500 ppm: < 50%
[2]
  mortality at 500 ppm: < 50%
[3]
  mortality at 500 ppm: < 50%
[4]
  pest or weed control at 500 ppm: < 50%
[5]
  mortality at 500 ppm: < 50%
[6]
  mortality at 500 ppm: < 50%
[7]
  mortality at 500 ppm: < 50%
[8]
  mortality at 500 ppm: 50 to 79%
[9]
  mortality at 500 ppm: < 50%

## CC(C)(C=Cc1ccc(Cl)cc1)COCc1ccc(F)c(Oc2ccccc2)c1 [Compound 7, 3,3-Dimethyl-1-(4-chlorophenyl)-4-(4-fluoro-3-phenoxybenzyloxy)but-1-ene]
[1]
  mortality at 500 ppm: < 50%
[2]
  mortality at 500 ppm: 80 to 100%
[3]
  mortality at 500 ppm: < 50%
[4]
  pest or weed control at 500 ppm: 80 to 100%
[5]
  mortality at 500 ppm: 80 to 100%
[6]
  mortality at 500 ppm: < 50%
[7]
  mortality at 500 ppm: 80 to 100%
[8]
  mortality at 500 ppm: 80 to 100%
[9]
  mortality at 500 ppm: 80 to 100%

## CCOc1ccc(/C=C\C(C)(C)COCc2cccc(Oc3ccccc3)c2)cc1 [Compound 3, 3,3-Dimethyl-1-(4-ethoxyphenyl)-4-(3-phenoxybenzyloxy)but-1-ene]
[1]
  mortality at 500 ppm: < 50%
[2]
  mortality at 500 ppm: < 50%
[3]
  mortality at 500 ppm: < 50%
[4]
  pest or weed control at 500 ppm: < 50%
[5]
  mortality at 500 ppm: < 50%
[6]
  mortality at 500 ppm: < 50%
[7]
  mortality at 500 ppm: < 50%
[8]
  mortality at 500 ppm: < 50%
[9]
  mortality at 500 ppm: < 50%

## Clc1ccc(/C=C/C2(COCc3cccc(Oc4ccccc4)c3)CC2)cc1 [Compound 22, 1-[2-(4-chlorophenyl)ethen-1-yl]-1-(3-phenoxybenzyloxymethyl)cyclopropane]
[1]
  mortality at 500 ppm: < 50%
[2]
  mortality at 500 ppm: < 50%
[3]
  mortality at 500 ppm: 50 to 79%
[4]
  pest or weed control at 500 ppm: < 50%
[5]
  mortality at 500 ppm: < 50%
[6]
  mortality at 500 ppm: < 50%
[7]
  mortality at 500 ppm: < 50%
[8]
  mortality at 500 ppm: 80 to 100%
[9]
  mortality at 500 ppm: < 50%

## CCOc1ccc(CCC(C)(C)COCc2cccc(Oc3ccccc3)c2)cc1 [Compound 33, 3,3-Dimethyl-1-(4-ethoxyphenyl)-4-(3-phenoxybenzyloxy)butane]
[1]
  mortality at 500 ppm: < 50%
[2]
  mortality at 500 ppm: < 50%
[3]
  mortality at 500 ppm: < 50%
[4]
  pest or weed control at 500 ppm: < 50%
[5]
  mortality at 500 ppm: < 50%
[6]
  mortality at 500 ppm: < 50%
[7]
  mortality at 500 ppm: < 50%
[8]
  mortality at 500 ppm: 80 to 100%
[9]
  mortality at 500 ppm: < 50%
